3 molecules from patent EP3046573B1, “AMYLIN ANALOGUES” (Zealand Pharma A/S, priority 2013, dated 2015) can be followed below.

Read-outs that look alike come from different tables or passages of the source. Numbered stars: 1 amine (or outer) side, 2 acyl side, 3 side chain; on linkers, the order of the positions; unused ones are H or OH. Bridge positions count the residues as written; N and C are the ends. Square brackets hold non-standard residues; d marks the D form. Peptide text beside a SMILES is read from it. * marks the point of attachment. C20 diacid = O=C(O)CCCCCCCCCCCCCCCCCCC(=O)*; γGlu = O=C(O)[C@H](CCC(=O)[*:2])N[*:1]; NMeI = CC[C@H](C)[C@H](NC)C(=O)O; Sar = CNCC(=O)O

Data set [1] addresses T1, human calcitonin receptor (hCTR2) (Homo sapiens, UniProt P30988).
T1 construct: expressed in transfected cells
T1 sequence (P30988 25-474): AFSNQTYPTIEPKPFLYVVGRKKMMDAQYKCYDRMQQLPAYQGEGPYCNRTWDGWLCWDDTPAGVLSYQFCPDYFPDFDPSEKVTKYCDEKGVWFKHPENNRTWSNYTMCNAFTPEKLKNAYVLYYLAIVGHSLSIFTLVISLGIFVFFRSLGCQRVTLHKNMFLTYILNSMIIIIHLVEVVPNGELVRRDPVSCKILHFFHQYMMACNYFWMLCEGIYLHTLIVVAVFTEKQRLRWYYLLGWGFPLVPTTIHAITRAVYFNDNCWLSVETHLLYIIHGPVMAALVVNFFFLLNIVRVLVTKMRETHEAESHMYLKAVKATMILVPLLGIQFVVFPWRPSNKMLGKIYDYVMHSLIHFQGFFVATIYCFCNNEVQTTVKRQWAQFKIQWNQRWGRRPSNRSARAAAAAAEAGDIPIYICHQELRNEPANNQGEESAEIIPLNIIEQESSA
As to the kind of experiment: hCTR2 assay: induction of cAMP (AlphaScreen cAMP Assay kit) in COS7 cells expressing hCTR2. The format is cell-based. The note with it: cAMP induction in COS7 cells expressing hCTR2; average of a minimum of 3 determinations; read-out: hCTR2 EC50. A digest of the protocol:
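Stable RAMP-naive COS7 clone expressing hCTR2 was stimulated with increasing peptide concentrations in Tyrode buffer (pH 7.4) with 100 µM IBMX and 0.1% casein for 15 min at 37° C. Cells were lysed and cAMP measured by AlphaScreen. EC50 and efficacy relative to pramlintide came from 4PL curve fits.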
(In general: In Alpha technology, singlet oxygen from a donor bead excites a nearby acceptor bead.)

Data set [2] can be described thus: Solubility assessment (turbidity absorbance at 325 nm). Type of data set: physicochemical. The note with it: stock 2 mg/ml diluted 1:1, ambient temperature (typically 25°C), n=1; for Solubility, Acetate buffer pH 4: 100 mM acetate buffer pH 4.0; for Solubility, Acetate buffer pH 5: 100 mM acetate buffer pH 5.0; for Solubility, Histidine buffer pH 6: 100 mM histidine buffer pH 6.0; for Solubility, Histidine buffer pH 7: 100 mM histidine buffer pH 7.0; for Solubility, Phosphate buffer pH 6: 100 mM phosphate buffer pH 6.0; for Solubility, Phosphate buffer pH 7: 100 mM phosphate buffer pH 7.0; for Solubility, Phosphate buffer pH 7.5: 100 mM phosphate buffer pH7.5. In a few lines:
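Stock 2 mg/ml peptide, H2O/HCl pH 2.5; 1:1 into 100 mM buffers: acetate pH 4.0/5.0, His pH 6.0/7.0, phosphate pH 6.0/7.0/7.5. A280 + A325, ~25°C, n=1. Soluble ≥ 1 mg/ml if A325 ≤ 0.02.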

Data set [3] deals with T2, human amylin receptor 3 (hAMYR3) consisting of hCTR2 co-expressed with human Receptor Activity Modifying Protein 3 (hRAMP3) (Homo sapiens, UniProt O60896+P30988).
T2 construct: expressed in transfected cells
T2 sequence (P30988 25-474): T1 sequence (P30988 25-474)
T2 sequence (O60896 24-148 partner): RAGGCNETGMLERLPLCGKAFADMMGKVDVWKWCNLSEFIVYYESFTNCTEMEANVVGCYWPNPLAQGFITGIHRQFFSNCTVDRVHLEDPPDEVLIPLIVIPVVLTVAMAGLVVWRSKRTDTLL
Kind of data set: hAMYR3 assay: induction of cAMP (AlphaScreen cAMP Assay kit) in COS7 cells expressing hAMYR3. The format is cell-based. A digest of the protocol:
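Stable COS7 clone co-expressing hCTR2 and hRAMP3, stimulated 15 min at 37° C with increasing peptide in Tyrode buffer pH 7.4 with 100 µM IBMX and 0.1% casein. cAMP measured by AlphaScreen after lysis; EC50 and % efficacy versus pramlintide from 4PL fit.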

With `CC[C@H](C)[C@@H](C(=O)N[C@@H](CC(C)C)C(=O)N[C@@H](CO)C(=O)N[C@@H](CO)C(=O)N[C@H](C(=O)N[C@@H](CCC(=O)O)C(=O)N[C@H](C(=O)NCC(=O)N[C@@H](CO)C(=O)N[C@@H](CCC(=O)O)C(=O)N[C@H](C(=O)N1CCC[C@H]1C(N)=O)[C@@H](C)O)C(C)C)[C@@H](C)O)N(C)C(=O)[C@H](C)NC(=O)CN(C)C(=O)[C@H](Cc1ccccc1)NC(=O)[C@H](CO)NC(=O)[C@H](CO)NC(=O)[C@H](CO)NC(=O)[C@H](CO)NC(=O)[C@H](CCCNC(=N)N)NC(=O)[C@H](Cc1c[nH]cn1)NC(=O)[C@H](CC(C)C)NC(=O)[C@H](Cc1ccccc1)NC(=O)[C@H](CCC(=O)O)NC(=O)[C@H](C)NC(=O)[C@H](CC(C)C)NC(=O)[C@H](CCCNC(=N)N)NC(=O)[C@H](C)NC(=O)[C@@H](NC(=O)[C@H](C)NC(=O)[C@@H]1CSSC[C@H](NC(=O)[C@H](CCCNC(=N)N)NC(=O)CC[C@H](NC(=O)CCCCCCCCCCCCCCCCCCC(=O)O)C(=O)O)C(=O)N[C@@H](CO)C(=O)N[C@@H]([C@@H](C)O)C(=O)N[C@@H](C)C(=O)N[C@@H]([C@@H](C)O)C(=O)N1)[C@@H](C)O` [Compound 144, [19CD]-isoGlu-RC()STATC()ATARLAEFLHRSSSSF-Gly(Me)-A-Ile(Me)-LSSTEVGSETP-NH2] ({C20 diacid-γGlu}-RCSTATCATARLAEFLHRSSSSF[Sar]A[NMeI]LSSTEVGSETP-NH2; disulfide 2-7), the EC50 in data set [1] came to 0.11 nM. For the same molecule, in data set [2], the “Solubility, Acetate buffer pH 4” value is listed as “SS (SS indicates solubility ≥ 1mg/ml)”; the “Solubility, Acetate buffer pH 5” value was “SS (SS indicates solubility ≥ 1mg/ml)”; the “Solubility, Histidine buffer pH 6” value is reported as “SS (SS indicates solubility ≥ 1mg/ml)”; the “Solubility, Histidine buffer pH 7” value is “SS (SS indicates solubility ≥ 1mg/ml)”. In data set [2], the “Solubility, Phosphate buffer pH 6” value was “SS (SS indicates solubility ≥ 1mg/ml)”; the “Solubility, Phosphate buffer pH 7” value was “SS (SS indicates solubility ≥ 1mg/ml)”; the “Solubility, Phosphate buffer pH 7.5” value is reported as “SS (SS indicates solubility ≥ 1mg/ml)”. The EC50 in data set [3] (cAMP induction in COS7 cells expressing hAMYR3, average of a minimum of 3 determinations, read-out: hAMY R3 EC50) is 0.24 nM.

As to `CC[C@H](C)[C@@H](C(=O)N[C@@H](CC(C)C)C(=O)N[C@@H](CO)C(=O)N[C@@H](CO)C(=O)N[C@H](C(=O)N[C@@H](CCC(=O)O)C(=O)N[C@H](C(=O)NCC(=O)N[C@@H](CO)C(=O)N[C@@H](CCC(=O)O)C(=O)N[C@H](C(=O)N1CCC[C@H]1C(N)=O)[C@@H](C)O)C(C)C)[C@@H](C)O)N(C)C(=O)[C@H](C)NC(=O)CN(C)C(=O)[C@H](Cc1ccccc1)NC(=O)[C@H](CO)NC(=O)[C@H](CO)NC(=O)[C@H](CO)NC(=O)[C@H](CO)NC(=O)[C@H](CCCNC(=N)N)NC(=O)[C@H](Cc1c[nH]cn1)NC(=O)[C@H](CC(C)C)NC(=O)[C@H](Cc1ccccc1)NC(=O)[C@H](CCC(=O)O)NC(=O)[C@H](C)NC(=O)[C@H](CC(C)C)NC(=O)[C@H](CCCNC(=N)N)NC(=O)[C@H](C)NC(=O)[C@@H](NC(=O)[C@H](C)NC(=O)[C@@H]1CSSC[C@H](NC(=O)[C@H](CCCNC(=N)N)NC(=O)CC[C@H](NC(=O)CCCCCCCCCCCCCCCCCCC(=O)O)C(=O)O)C(=O)N[C@@H](CC(=O)O)C(=O)N[C@@H]([C@@H](C)O)C(=O)N[C@@H](C)C(=O)N[C@@H]([C@@H](C)O)C(=O)N1)[C@@H](C)O` [Compound 145, [19CD]-isoGlu-RC()DTATC()ATARLAEFLHRSSSSF-Gly(Me)-A-Ile(Me)-LSSTEVGSETP-NH2] ({C20 diacid-γGlu}-RCDTATCATARLAEFLHRSSSSF[Sar]A[NMeI]LSSTEVGSETP-NH2; disulfide 2-7), in data set [1], the EC50 came out at 0.092 nM. Further, in data set [2], the “Solubility, Acetate buffer pH 4” value is recorded as “SS (SS indicates solubility ≥ 1mg/ml)”; the “Solubility, Acetate buffer pH 5” value was “SS (SS indicates solubility ≥ 1mg/ml)”; the “Solubility, Histidine buffer pH 6” value is on record as “SS (SS indicates solubility ≥ 1mg/ml)”; the “Solubility, Histidine buffer pH 7” value is on record as “SS (SS indicates solubility ≥ 1mg/ml)”. For the same molecule, in data set [2], the “Solubility, Phosphate buffer pH 6” value is listed as “SS (SS indicates solubility ≥ 1mg/ml)”; the “Solubility, Phosphate buffer pH 7” value is “SS (SS indicates solubility ≥ 1mg/ml)”; the “Solubility, Phosphate buffer pH 7.5” value is “SS (SS indicates solubility ≥ 1mg/ml)”. In data set [3], this molecule had a 50% effective concentration (EC50) of 0.22 nM.

As to `CC[C@H](C)[C@@H](C(=O)N[C@@H](CC(C)C)C(=O)N[C@@H](CO)C(=O)N[C@@H](CO)C(=O)N[C@H](C(=O)N[C@@H](CCC(=O)O)C(=O)N[C@H](C(=O)NCC(=O)N[C@@H](CO)C(=O)N[C@@H](CCC(=O)O)C(=O)N[C@H](C(=O)N1CCC[C@H]1C(N)=O)[C@@H](C)O)C(C)C)[C@@H](C)O)N(C)C(=O)[C@H](C)NC(=O)CN(C)C(=O)[C@H](Cc1ccccc1)NC(=O)[C@H](CO)NC(=O)[C@H](CO)NC(=O)[C@H](CO)NC(=O)[C@H](CO)NC(=O)[C@H](CCCNC(=N)N)NC(=O)[C@H](Cc1c[nH]cn1)NC(=O)[C@H](CC(C)C)NC(=O)[C@H](Cc1ccccc1)NC(=O)[C@H](CCC(=O)O)NC(=O)[C@H](C)NC(=O)[C@H](CC(C)C)NC(=O)[C@H](CCCNC(=N)N)NC(=O)[C@H](C)NC(=O)[C@@H](NC(=O)[C@H](C)NC(=O)[C@@H]1CSSC[C@H](NC(=O)[C@H](CCCNC(=N)N)NC(=O)CC[C@H](NC(=O)CCCCCCCCCCCCCCCCCCC(=O)O)C(=O)O)C(=O)N[C@@H](CCC(=O)O)C(=O)N[C@@H]([C@@H](C)O)C(=O)N[C@@H](C)C(=O)N[C@@H]([C@@H](C)O)C(=O)N1)[C@@H](C)O` [Compound 146, [19CD]-isoGlu-RC()ETATC()ATARLAEFLHRSSSSF-Gly(Me)-A-Ile(Me)-LSSTEVGSETP-NH2] ({C20 diacid-γGlu}-RCETATCATARLAEFLHRSSSSF[Sar]A[NMeI]LSSTEVGSETP-NH2; disulfide 2-7), the EC50 in data set [1] was found to be 0.092 nM. Besides, in data set [2], the “Solubility, Acetate buffer pH 4” value is reported as “SS (SS indicates solubility ≥ 1mg/ml)”; the “Solubility, Acetate buffer pH 5” value was “SS (SS indicates solubility ≥ 1mg/ml)”; the “Solubility, Histidine buffer pH 6” value is “SS (SS indicates solubility ≥ 1mg/ml)”; the “Solubility, Histidine buffer pH 7” value is “SS (SS indicates solubility ≥ 1mg/ml)”. Moreover, in data set [2], the “Solubility, Phosphate buffer pH 6” value is on record as “SS (SS indicates solubility ≥ 1mg/ml)”; the “Solubility, Phosphate buffer pH 7” value is reported as “SS (SS indicates solubility ≥ 1mg/ml)”; the “Solubility, Phosphate buffer pH 7.5” value is given as “SS (SS indicates solubility ≥ 1mg/ml)”. The EC50 in data set [3] was determined as 0.15 nM.

The term EC50 denotes the concentration needed to bring the measured effect to its halfway point.
